Consider 1 compound from patent US20130023555A1, “KINASE INHIBITOR WITH IMPROVED SOLUBILITY PROFILE” (Abbott Laboratories, priority 2011, published 2013).

In brackets after ≈: the same amount, converted by molar mass. Bounds are passed on as bounds.

The target of one data set is T1, KDR (Homo sapiens, UniProt P35968).
T1 construct: KDR 789- 1354; His6 (N)
In words: HTRF in vitro kinase assay, KDR. The class given is biochemical. The note with it: 1 mM ATP. The procedure:
To determine the activity of the various kinases, a homogenous time-resolved fluorescence (HTRF) in vitro kinase assay was used. (Mathis, G., HTRF(R) Technology. J Biomol Screen, 1999. 4(6): p. 309-314; Alfred J. Kolb, Paul V. Kaplita, David J. Hayes, Young-Whan Park, Christine Pernell, John S. Major and Gerard Mathis, Drug Discovery Today, 1998, 3, 333-342.)
For example for KDR, cKIT, FLT1, CSF1R and FTL3, purified enzyme was mixed with 0.5 μM N-biotinylated substrate (Biotin-Ahx-[…]-amide (SEQ. ID. 1)), various concentrations of inhibitor in reaction buffer (50 mM HEPES, pH 7.1, 10 mM MgCl2, 2 mM MnCl2, 0.1% BSA and 1 mM DTT, 40 μL final volume), ATP (1 mM final conc.) in a black 384-well plate. […] The quenched reaction was allowed to stand at room temperature for 3 hours and was then read in a time-resolved fluorescence detector (InVision, Perkin-Elmer) at 620 nm and 665 nm sequentially with excitation. The ratio between the signal of 620 nm and 665 nm was used in the calculation of the IC50.
For orientation: In TR-FRET formats the signal depends on donor and acceptor labels being close together.

Data set [1] can be described thus: Determination of Thermodynamic Solubility. The format is physicochemical. To be noted: PEG 300, 25 °C, organic solvent or mixture, thermodynamic from solid, PEG 300, Example 2 at 25° C., Example 1 at ambient temperature, read-out: Solubility (PEG300). The procedure: Aqueous pH 7.4 and PEG 300 samples were tested at 25° C. Excess amount of the bulk drug was weighed out and mixed with an aliquot of target media in a clear glass vial (n=3/solvent). The vial was capped, wrapped with aluminum foil, and tumbled in a 25° C. water bath. When equilibration was completed, the samples were removed from the water bath and the final pH was measured, if applicable. The samples were centrifuged at 25° C. at 3000 rpm for 20 minutes. The supernatant was filtered through 4 mm 0.45 μm PTFE syringe filters. The filtrate was assayed after appropriate dilution (no dilution required for aqueous samples). The concentration of the sample was calculated against a calibration curve for the compound.
Solubility in pH 7.4 buffer was carried out as described above, except samples were not centrifuged before filtration. All other experimental steps were the same. PEG 300 and PEG 400 solubility were done at ambient temperature. Excess amount of the bulk drug was weighed out and mixed with an aliquot of target media in a clear glass vial with a small stir bar (n=3). The vials were placed on the stirrer at ˜500 rpm and allowed to equilibrate over the weekend. Samples were filtered through 13 mm 0.45 μm GHP syringe filters. The filtrate was assayed after appropriate dilutions, and concentrations determined against a calibration curve for the compound.

Another data set can be described thus: CLND Solubility Assay. The class given is physicochemical. The procedure:
Chemiluminescent nitrogen detection (CLND) method oxidized the analyte to nitrogen oxide that reacted with ozone to provide a photon of light and was a measure of how much compound was in solution. Compounds must contain nitrogens for this experiment. Nitrogen impurities present in the compound will cause falsely high results. • 1. Compound concentration tested was 35 μM in 10 mM phosphate buffer, 7.2. • 2. Compounds were tested in triplicate. • 3. Compound concentration was determined by comparing readings to a caffeine standard curve. One standard curve was run before and after every test plate. For 3 test plates, four standard curves were generated.
Experimental Procedure: • 1. 5 μl of 5 mM test compound in DMSO was added to three adjacent wells in a plate. • 2. 695 μl of 10 mM phosphate buffer, pH 7.2, was added to each well. • 3. The plates were sealed. • 4. The plates were allowed to sonicate for 1 hour. • 5. The plates were shook on a plate orbital shaker for up to 6 hours. • 6. The plates were spinned at 5000 rpm (6000×G) overnight. • 7. Standard curves were prepared by adding 5 μl of stock solutions to wells according to Caffeine Concentrations for Standard Curve table below. • 8. Buffer (10 mM phosphate buffer, pH 7.2, 695 μl) was added. • 9. The plates were sealed. • 10. The plates were loaded onto a TOC/CLND. • 11. The results were analyzed after the run was completed.
The solubility was determined by comparing the reading generated by analysis of the sample to the standard curve. The value was then divided by the number of nitrogens contained in the compound. Corrections for impurities during the synthesis were included in the number of nitrogens. The resulting value was the reported solubility.

A further data set deals with T2, CYP3A4 (Homo sapiens, UniProt P08684).
T2 construct: The incubations consisted of human liver microsomal protein at 0.4 mg/ml; from tissue; host or cells: human liver microsomes
In words: CYP 3A4 Assay (Luc, luminescence, human liver microsomes). To be noted: human liver microsomes 0.4 mg/mL, substrate LUC-LIPA. The format is in vitro ADME. The procedure: Each assay was preformed in ½ well plates. Test compounds were examined at six concentrations in DMSO that were serial diluted to: 2, 0.6, 0.2, 0.07, 0.02, and 0.007 mM (from left to right) and at 100×; 0.5 ul of these dilutions were added to two empty assay plates (resulting in final assay concentrations of 20, 6, 2, 0.7, 0.2, and 0.07 uM. The control and vehicle were added to the plate at 100× with the same dilution scheme.
The incubations consisted of human liver microsomal protein at 0.4 mg/ml in 100 mM KPO4 buffer, 125 uM NADPH and Regeneration mix in phosphate buffer at pH 7.4.
CYP3A4 requires a pre-incubation using the following recipe:
• CYP3A4—5 μM LUC-LIPA in 100 mM phosphate buffer pH 7.4 • Assay Procedure for CYP3A4: • 1. 40 uL of the Pre-incubation Mixture was added to all wells of the assay plates. • 2. Plates were pre-incubated for 10 minutes at 37° C., with shaking or rocking. (No pre-read is necessary for the luminescence assays CYP2C9 and CYP3A4). • 3. 10 μL of Substrate Solution was added to all wells of the assay plates. • 4. Plates were incubated for an additional 25 minutes at 37° C., with shaking or rocking. • 5. added 50 μl of stop/developer from respective kits, and incubated for 20 minutes to 2 hours with shaking at room temperature prior to reading. […]
On the technique in general: Liver microsomes are a subcellular fraction often used to study metabolism.

T1 sequence (P35968 789-1354): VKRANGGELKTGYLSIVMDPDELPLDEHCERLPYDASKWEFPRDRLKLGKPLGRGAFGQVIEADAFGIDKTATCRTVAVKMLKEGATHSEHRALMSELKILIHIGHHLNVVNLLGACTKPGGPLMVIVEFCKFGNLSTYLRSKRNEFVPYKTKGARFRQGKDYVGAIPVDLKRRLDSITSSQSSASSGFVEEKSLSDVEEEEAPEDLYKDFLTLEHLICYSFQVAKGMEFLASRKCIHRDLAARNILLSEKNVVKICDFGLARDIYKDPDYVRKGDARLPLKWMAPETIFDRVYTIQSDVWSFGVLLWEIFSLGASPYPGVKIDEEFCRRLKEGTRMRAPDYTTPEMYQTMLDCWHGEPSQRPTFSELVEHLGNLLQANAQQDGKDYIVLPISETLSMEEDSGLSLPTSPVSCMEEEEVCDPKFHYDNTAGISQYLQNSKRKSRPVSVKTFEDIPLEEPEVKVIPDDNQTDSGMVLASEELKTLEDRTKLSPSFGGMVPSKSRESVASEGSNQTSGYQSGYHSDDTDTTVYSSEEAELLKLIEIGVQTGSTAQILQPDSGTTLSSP
T2 sequence (P08684 whole entry): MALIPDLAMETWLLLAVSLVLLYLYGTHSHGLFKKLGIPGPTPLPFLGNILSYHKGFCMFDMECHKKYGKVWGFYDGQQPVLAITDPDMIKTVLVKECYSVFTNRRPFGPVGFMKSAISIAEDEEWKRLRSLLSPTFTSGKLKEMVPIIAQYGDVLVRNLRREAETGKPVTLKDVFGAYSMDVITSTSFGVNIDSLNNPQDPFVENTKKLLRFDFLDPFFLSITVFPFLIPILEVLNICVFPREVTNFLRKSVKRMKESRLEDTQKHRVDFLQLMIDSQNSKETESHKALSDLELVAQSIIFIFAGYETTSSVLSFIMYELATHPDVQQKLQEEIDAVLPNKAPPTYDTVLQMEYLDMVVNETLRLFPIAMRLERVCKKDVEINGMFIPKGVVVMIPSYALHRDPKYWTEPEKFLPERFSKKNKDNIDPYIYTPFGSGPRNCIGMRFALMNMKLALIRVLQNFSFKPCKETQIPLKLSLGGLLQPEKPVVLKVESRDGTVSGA

The term IC50 denotes the concentration that inhibits the measured activity by half. A word on the solubility: it is the dissolved amount per volume that the medium holds. In the case of `CNC(=O)c1cnc(N)c2c(-c3ccc(NC(=O)Nc4cccc(C)c4)cc3)csc12` [Example 2, 4-amino-N-methyl-3-(4-{[(3-methylphenyl)carbamoyl]amino}phenyl)thieno[3,2-c]pyridine-7-carboxamide], the results for the IC50 on KDR and on CYP3A4 were 2 nM and more than 20000 nM, respectively. In addition, the solubility amounted to 8400 µg/mL (≈ 19.5 mM) in data set [1] and 6.03 µM (≈ 2.6 µg/mL) in the data set “CLND Solubility Assay” (aqueous buffer, kinetic from dmso stock, 35 μM compound in 10 mM phosphate buffer, pH 7.2). Moreover, in “CLND Solubility Assay” (comment on Table 5), the “aqueous solubility, in words” value is “extremely low aqueous solubility”.
